Earlier results in US7205279B2, “Pharmaceutical compositions” (Novartis AG, priority 1995, dated 2007).

Settings: room temperature

- solubility in water: 8.5 g per 100 ml
Structure (SMILES): CCOC(C)=O [Ethyl acetate]
